Structures can show the parent of a compound that is named as a salt.

Our source for the IC50 values is patent publication US9216991B2 (Ares Trading S.A., priority 2012, dated 2015).

The assay concerns the target T1, IRAK4 (Homo sapiens, UniProt Q9NWZ3).
T1 construct: His (N); TEV cleavage site (N)
T1 sequence (Q9NWZ3 1-460): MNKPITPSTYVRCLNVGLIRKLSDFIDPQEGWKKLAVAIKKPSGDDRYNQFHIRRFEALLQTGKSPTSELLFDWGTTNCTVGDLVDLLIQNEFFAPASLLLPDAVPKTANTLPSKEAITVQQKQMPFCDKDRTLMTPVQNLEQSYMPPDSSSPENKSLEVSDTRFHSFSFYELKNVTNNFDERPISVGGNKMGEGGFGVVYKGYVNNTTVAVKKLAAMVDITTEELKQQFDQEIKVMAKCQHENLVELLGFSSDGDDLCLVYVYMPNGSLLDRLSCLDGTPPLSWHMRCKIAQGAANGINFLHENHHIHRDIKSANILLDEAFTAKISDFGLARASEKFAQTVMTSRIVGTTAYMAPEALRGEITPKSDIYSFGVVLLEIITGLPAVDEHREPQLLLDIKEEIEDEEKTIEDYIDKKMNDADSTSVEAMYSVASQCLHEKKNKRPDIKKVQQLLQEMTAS
Description: IRAK4 Enzymatic Assay. As to conditions: His-TEV-IRAK4 20 ng/well, ATP 2 μM, STK1-biotin peptide 300 nM, 3 hours at 30° C., FlashPlate radioactivity. The assay is classed as biochemical. In short, it runs like this: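 Recombinant His-TEV-tagged IRAK4 (20 ng/well) phosphorylates biotinylated STK1 peptide (300 nM) with 2 μM ATP plus [^33P]ATP, 3 h at 30 °C in pH 7.0 HEPES buffer with MgCl2 and MnCl2; compounds tested 20 μM to 1 nM. Reaction stopped with EDTA; incorporated radioactivity counted on streptavidin FlashPlates.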
By IC50 is commonly meant the point on the concentration scale where inhibition reaches its midpoint. As to `Cn1cc(-c2cccc(-c3ncc(-c4cnn(CC(=O)N5CC6(COC6)C5)c4)cn3)c2)cn1` [Example 55, 2-(4-{2-[3-(1-Methyl-1H-pyrazol-4-yl)-phenyl]-pyrimidin-5-yl}-pyrazol-1-yl)-1-(2-oxa-6-aza-spiro[3.3]hept-6-yl)-ethanone], the IC50 fell in the range of 0.1 to 1 µM.
To `Cc1ncc(-c2cccc(-c3ncc(-c4cnn(CC(=O)N5CCCC5)c4)cn3)c2)s1` [Example 56, 2-(4-{2-[3-(2-Methyl-thiazol-5-yl)-phenyl]-pyrimidin-5-yl}-pyrazol-1-yl)-1-pyrrolidin-1-yl-ethanone] belongs 0.1 to 1 µM.
Take `Cn1cc(-c2cccc(-c3ncc(-c4cnn(CCN5CCCCC5)c4)cn3)c2)cn1` [Example 57, 2-[3-(1-Methyl-1H-pyrazol-4-yl)-phenyl]-5-[1-(2-piperidin-1-yl-ethyl)-1H-pyrazol-4-yl]-pyrimidine]: the IC50 was 0.1 to 1 µM.
`Cn1cc(-c2cccc(-c3ncc(-c4cnn(CCN5CCCC5)c4)cn3)c2)cn1` [Example 58, 2-[3-(1-Methyl-1H-pyrazol-4-yl)-phenyl]-5-[1-(2-pyrrolidin-1-yl-ethyl)-1H-pyrazol-4-yl]-pyrimidine]: the IC50 was 0.1 to 1 µM.
With `O=C(Cn1cc(-c2cnc(-c3cccc(-c4cnn(CCO)c4)c3)nc2)cn1)N1CCCC1` [Example 59, 2-[4-(2-{3-[1-(2-Hydroxy-ethyl)-1H-pyrazol-4-yl]-phenyl}-pyrimidin-5-yl)-pyrazol-1-yl]-1-pyrrolidin-1-yl-ethanone], the IC50 was in the range of 1 to 5 µM.
Turning to `CCC(CO)NC(=O)Cn1cc(-c2cnc(-c3cccc(-c4cnn(C)c4)c3)nc2)cn1` (stereo not drawn) [Example 60, N-(1-Hydroxymethyl-propyl)-2-(4-{2-[3-(1-methyl-1H-pyrazol-4-yl)-phenyl]-pyrimidin-5-yl}-pyrazol-1-yl)-acetamide], the IC50 is 1 to 5 µM.
On to `CN1[C@@H]2CC[C@H]1C[C@H](n1cc(-c3cnc(-c4cccc(-c5cnn(C)c5)c4)nc3)cn1)C2` [Example 61, (3-exo)-8-Methyl-3-(4-{2-[3-(1-methyl-1H-pyrazol-4-yl)-phenyl]-pyrimidin-5-yl}-pyrazol-1-yl)-8-aza-bicyclo[3.2.1]octane], for which the IC50 is less than 0.1 µM.
Turning to `Cn1cc(-c2cccc(-c3ncc(-c4cnn(C5CCC(C(=O)O)CC5)c4)cn3)c2)cn1` (stereo not drawn) [Example 62, 4-(4-{2-[3-(1-Methyl-1H-pyrazol-4-yl)-phenyl]-pyrimidin-5-yl}-pyrazol-1-yl)-cyclohexanecarboxylic acid], the IC50 was in the range of 0.1 to 1 µM.
Take `COCC(C)NC(=O)Cn1cc(-c2cnc(-c3cccc(-c4cnn(C)c4)c3)nc2)cn1` (stereo not drawn) [Example 63]: the IC50 lay within 0.1 to 1 µM.
To `CN1CCCC1CCn1cc(-c2cnc(-c3cccc(-c4cnn(C)c4)c3)nc2)cn1` (stereo not drawn) [Example 64, 2-[3-(1-Methyl-1H-pyrazol-4-yl)-phenyl]-5-{1-[2-(1-methyl-pyrrolidin-2-yl)-ethyl]-1H-pyrazol-4-yl}-pyrimidine] belongs 0.1 to 1 µM.
As for `Cn1cc(-c2cccc(-c3ncc(-c4cnn(CC5CCNC5)c4)cn3)c2)cn1` (stereo not drawn) [Example 65, 2-[3-(1-Methyl-1H-pyrazol-4-yl)-phenyl]-5-(1-pyrrolidin-3-ylmethyl-1H-pyrazol-4-yl)-pyrimidine hydrochloride], the IC50 lay within 0.1 to 1 µM.
To `Cn1cc(-c2cccc(-c3ncc(-c4cnn(CC5CNC5)c4)cn3)c2)cn1` [Example 66, 5-(1-Azetidin-3-ylmethyl-1H-pyrazol-4-yl)-2-[3-(1-methyl-1H-pyrazol-4-yl)-phenyl]-pyrimidine hydrochloride] belongs 0.1 to 1 µM.
The value for `Cn1cc(-c2cccc(-c3ncc(-c4cnn(CC(F)F)c4)cn3)c2)cn1` [Example 67, 5-[1-(2,2-Difluoro-ethyl)-1H-pyrazol-4-yl]-2-[3-(1-methyl-1H-pyrazol-4-yl)-phenyl]-pyrimidine] was 0.1 to 1 µM; that for `O=C(Cn1cc(-c2cnc(-c3cccc(-c4ccncc4)c3)nc2)cn1)N1CCOCC1` [Example 68, 1-Morpholin-4-yl-2-{4-[2-(3-pyridin-4-yl-phenyl)-pyrimidin-5-yl]-pyrazol-1-yl}-ethanone] was 1 to 5 µM; that for `Cn1cc(-c2cccc(-c3ncc(-c4cnn(CCC5CCOCC5)c4)cn3)c2)cn1` [Example 69, 2-[3-(1-Methyl-1H-pyrazol-4-yl)-phenyl]-5-{1-[2-(tetrahydro-pyran-4-yl)-ethyl]-1H-pyrazol-4-yl}-pyrimidine] was 0.1 to 1 µM.
On to `Cn1cc(-c2cccc(-c3ncc(-c4cnn(C[C@@H]5CCCN5)c4)cn3)c2)cn1` [Example 70, 2-[3-(1-Methyl-1H-pyrazol-4-yl)-phenyl]-5-(1-(S)-1-pyrrolidin-2-ylmethyl-1H-pyrazol-4-yl)-pyrimidine hydrochloride], for which the IC50 was in the range of 1 to 5 µM.
In the case of `Cn1cc(-c2cccc(-c3ncc(-c4cnn(C[C@H]5CCCN5)c4)cn3)c2)cn1` [Example 71, 2-[3-(1-Methyl-1H-pyrazol-4-yl)-phenyl]-5-(1-(R)-1-pyrrolidin-2-ylmethyl-1H-pyrazol-4-yl)-pyrimidine hydrochloride], the IC50 is 1 to 5 µM.
For the molecule `Cn1cc(-c2cccc(-c3ncc(-c4cnn(C5CCNCC5)c4)cn3)c2)nn1` [Example 72, 2-[3-(1-Methyl-1H-[1,2,3]triazol-4-yl)-phenyl]-5-(1-piperidin-4-yl-1H-pyrazol-4-yl)-pyrimidine hydrochloride], the concentration for half-maximal inhibition (IC50) is 1 to 5 µM.
The value for `Cn1cc(-c2cccc(-c3ncc(-c4cnn(CC(=O)N5CCOC(CCO)C5)c4)cn3)c2)cn1` (stereo not drawn) [Example 75, 1-[2-(2-Hydroxy-ethyl)-morpholin-4-yl]-2-(4-{2-[3-(1-methyl-1H-pyrazol-4-yl)-phenyl]-pyrimidin-5-yl}-pyrazol-1-yl)-ethanone] was 0.1 to 1 µM.
As to `Cn1cc(-c2cccc(-c3ncc(-c4cnn(C5CCN(S(C)(=O)=O)CC5)c4)cn3)c2)cn1` [Example 76, 5-[1-(1-Methanesulfonyl-piperidin-4-yl)-1H-pyrazol-4-yl]-2-[3-(1-methyl-1H-pyrazol-4-yl)-phenyl]-pyrimidine], the IC50 lay in the range of 0.1 to 1 µM.
Take `Cn1cc(-c2cccc(-c3ncc(-c4cnn(CC(=O)N5CCC5)c4)cn3)c2)cn1` [Example 77, 1-Azetidin-1-yl-2-(4-{2-[3-(1-methyl-1H-pyrazol-4-yl)-phenyl]-pyrimidin-5-yl}-pyrazol-1-yl)-ethanone]: the half-maximal inhibitory concentration (IC50) lay in the range of 0.1 to 1 µM.
Regarding `O=C(Cn1cc(-c2cnc(-c3cccc(-c4cnco4)c3)nc2)cn1)N1CCOCC1` [Example 78, 1-Morpholin-4-yl-2-{4-[2-(3-oxazol-5-yl-phenyl)-pyrimidin-5-yl]-pyrazol-1-yl}-ethanone], the half-inhibitory concentration (IC50) fell in the range of 0.1 to 1 µM.
On to `O=C(Cn1cc(-c2cnc(-c3cccc(-c4c[nH]nn4)c3)nc2)cn1)N1CCOCC1` [Example 79, 1-Morpholin-4-yl-2-(4-{2-[3-(1H-[1,2,3]triazol-4-yl)-phenyl]-pyrimidin-5-yl}-pyrazol-1-yl)-ethanone], for which the IC50 was 1 to 5 µM.
To `CC1CN(C(=O)Cn2cc(-c3cnc(-c4cccc(-c5cnn(C)c5)c4)nc3)cn2)CCO1` (stereo not drawn) [Example 80, 1-(2-Methyl-morpholin-4-yl)-2-(4-{2-[3-(1-methyl-1H-pyrazol-4-yl)-phenyl]-pyrimidin-5-yl}-pyrazol-1-yl)-ethanone] belongs 0.1 to 1 µM; to `Cn1cc(-c2cccc(-c3ncc(-c4cnn(CC(=O)N5CCC[C@H]5CO)c4)cn3)c2)cn1` [Example 81, 1-((S)-2-Hydroxymethyl-pyrrolidin-1-yl)-2-(4-{2-[3-(1-methyl-1H-pyrazol-4-yl)-phenyl]-pyrimidin-5-yl}-pyrazol-1-yl)-ethanone], 0.1 to 1 µM.
For `Cn1cc(-c2cccc(-c3ncc(-c4cnn(CCC(=O)N5CCOCC5)c4)cn3)c2)cn1` [Example 83, 3-(4-{2-[3-(1-Methyl-1H-pyrazol-4-yl)-phenyl]-pyrimidin-5-yl}-pyrazol-1-yl)-1-morpholin-4-yl-propan-1-one], the IC50 was in the range of 1 to 5 µM.
With `Cn1cc(-c2cccc(-c3ncc(-c4cnn(CCC(=O)N5CCCC5)c4)cn3)c2)cn1` [Example 84, 3-(4-{2-[3-(1-Methyl-1H-pyrazol-4-yl)-phenyl]-pyrimidin-5-yl}-pyrazol-1-yl)-1-pyrrolidin-1-yl-propan-1-one], the IC50 lay within 1 to 5 µM.
As to `CN(C)C(=O)CCn1cc(-c2cnc(-c3cccc(-c4cnn(C)c4)c3)nc2)cn1` [Example 85, N,N-Dimethyl-3-(4-{2-[3-(1-methyl-1H-pyrazol-4-yl)-phenyl]-pyrimidin-5-yl}-pyrazol-1-yl)-propionamide], the IC50 lay in the range of 0.1 to 1 µM.
On to `Cn1cc(-c2cccc(-c3ncc(-c4cnn(CC(=O)N5CCC6(CC5)COC6)c4)cn3)c2)cn1` [Example 86, 2-(4-{2-[3-(1-Methyl-1H-pyrazol-4-yl)-phenyl]-pyrimidin-5-yl}-pyrazol-1-yl)-1-(2-oxa-7-aza-spiro[3.5]non-7-yl)-ethanone], for which the IC50 lay in the range of 0.1 to 1 µM.
The value for `COCCC1CN(C(=O)Cn2cc(-c3cnc(-c4cccc(-c5cnn(C)c5)c4)nc3)cn2)CCO1` (stereo not drawn) [Example 87, 1-[2-(2-Methoxy-ethyl)-morpholin-4-yl]-2-(4-{2-[3-(1-methyl-1H-pyrazol-4-yl)-phenyl]-pyrimidin-5-yl}-pyrazol-1-yl)-ethanone] was 0.1 to 1 µM.
